Source: patent US20100323456A1 (priority 2006, published 2010)
“And” between values parts separate entries of the source, which are not always exact repeats. Equal entries are not always repeated. “Also recorded” adds a separate entry of the source. Where two headings read alike, the source gives them in different places. Non-standard residues stand in square brackets, D forms with d. Residues, ends and D or L forms follow the SMILES beside them.

Columns and labels:
[1] = test system: G-proteins coupled to opioid and ET receptors; assay: [35S]GTPγS binding assay (G-protein stimulation) in neuronal membranes of neonatal rat brain, placebo and morphine withdrawal groups; format: biochemical; details: for Effect on [35S]GTPγS binding: brain of neonatal rats; for Effect on GTP binding: morphine withdrawal group compared to placebo; for Maximal stimulation of [35S]GTPγS binding / EC50: neonatal rat brain; for Maximal stimulation of [35S]GTPγS binding: 0.98 to 1000 nM; for EC50: read-out: EC50 for stimulated [35S]GTPγS binding
ET receptors = details: co-administration with morphine; cited from earlier work
central ET receptors = details: intracerebroventricular administration; cited from earlier work

Compound	Effect on [35S]GTPγS binding [1]	Effect on GTP binding [1]	Maximal stimulation of [35S]GTPγS binding ([1]; morphine withdrawal group)	EC50 ([1]; morphine withdrawal group)	Effect on G-protein stimulation / GTP binding ([1]; placebo (normal) group)	Maximal stimulation of [35S]GTPγS binding ([1]; placebo group)	EC50 ([1]; placebo group) [nM]	Effect on morphine-induced analgesia and hyperthermia (ET receptors)	Effect on mean arterial blood pressure (BP) (central ET receptors)
Cc1noc(NS(=O)(=O)c2cccc3c(N(C)C)cccc23)c1C [BMS182874]	concentration-dependent increase	significantly increased GTP binding	86.07%	31.2 nM and 33.2 nM	did not affect GTP binding; also recorded: did not stimulate G-proteins	6.71±1.51%	> 1000		
CC(C)C[C@@H]1NC(=O)[C@@H](C(C)C)NC(=O)[C@@H]2CCCN2C(=O)[C@@H](CC(=O)O)NC(=O)[C@@H](Cc2c[nH]c3ccccc23)NC1=O [BQ123] (cyclo(L[dW][dD]P[dV]))								potentiate morphine-induced analgesia and hyperthermia without affecting catalepsy	
CC[C@H](C)[C@H](NC(=O)[C@H](CC(=O)O)NC(=O)[C@H](CC(C)C)NC(=O)[C@H](Cc1c[nH]cn1)NC(=O)[C@@H]1CSSC[C@H](N)C(=O)N[C@@H](CO)C(=O)N[C@H]2CSSC[C@H](NC(=O)[C@H](CCC(=O)O)NC(=O)[C@H](CCCCN)NC(=O)[C@H](CC(=O)O)NC(=O)[C@H](CCSC)NC(=O)[C@H](CC(C)C)NC(=O)[C@H](CO)NC(=O)[C@H](CO)NC2=O)C(=O)N[C@@H](C(C)C)C(=O)N[C@@H](Cc2ccc(O)cc2)C(=O)N[C@@H](Cc2ccccc2)C(=O)N1)C(=O)N[C@H](C(=O)N[C@@H](Cc1c[nH]c2ccccc12)C(=O)O)[C@@H](C)CC [ET-1]	concentration-dependent increase	lower; also recorded: attenuated	87.16±4.83%	171 nM		74.88±1.50%	20.66 ± 0.12		transient rise followed by sustained fall
CN1CC[C@]23c4c5ccc(O)c4O[C@H]2[C@@H](O)C=C[C@H]3[C@H]1C5 [Morphine]	concentration-dependent increase	higher	83.60% and 83.60±5.77%			66.81% and 66.31±1.51%			
